Results on 13 molecules are retold here after ChEMBL document CHEMBL1201862, “PubChem BioAssay data set” (2004).

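Where inhibition never reached the appropriate level, the endpoint shown equals the highest concentration tested. Otherwise, values were interpolated linearly from a five-concentration, 48-hour dose response in 96-well plates. Abbreviation: GI50, concentration required for 50% inhibition of growth.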 Activity calls are given as the source filed them. Rule as the data show it: active = GI50 up to about 1.1 µM and inactive = higher.

Holding throughout (experiment): NCI tumour cell line growth inhibition, 48 h
Assay [1] concerns KM12.
Assay [2] concerns CAKI-1.
The subject of assay [3] is SNB-75.
Assay [4] has as its system SK-MEL-28.
Assay [5] has as its system EKVX.
Assay [6] deals with SN12C.
The subject of assay [7] is SR.
In assay [8] the test system is HT-29.
For assay [9], the system named is KM-20L2.
Assay [10] has as its system SF-539.
The subject of assay [11] is NCI-H23.
The subject of assay [12] is A549.
The subject of assay [13] is Malme-3M.
In assay [14] the test system is HL-60.
Assay [15] has as its system HOP-92.
Assay [16] relates to SK-MEL-2.
For assay [17], the system named is MOLT-4.

As to `N#Cc1cc([N+](=O)[O-])ccc1NC(=O)C(=O)C(C(=O)/C=C/c1ccccc1)C1OC(=O)c2ccccc21` (stereo not drawn), the GI50 in [1], in assay [2], in assay [3], in [4], in assay [5] and in assay [6] was > 100 µM (inactive) in each case. For the same molecule, the GI50 is 1.69 µM (inactive) in [7]; > 100 µM (inactive) in [8]; > 100 µM (inactive) in assay [9]; > 100 µM (inactive) in [10]; > 100 µM (inactive) in assay [11]; > 100 µM (inactive) in assay [12]. Also, the GI50 in assay [13], in [14] and in [15] was > 100 µM (inactive) throughout.
`C#CCC(O)c1ccccc1C(O)CC#C` (stereo not drawn): the GI50 in assay [1] is > 100 µM (inactive); in assay [2], 65.2 µM (inactive); in assay [3], 28.2 µM (inactive); in assay [4] it was > 100 µM (inactive); in [5], > 100 µM (inactive); in assay [16], 62.1 µM (inactive). Moreover, the GI50 in assay [6], in [8], in assay [9], in assay [17], in assay [11] and in assay [12] was > 100 µM (inactive) each time. Moreover, the GI50 in assay [13] is 79.4 µM (inactive); in [14] it was > 100 µM (inactive); in [15], 30.8 µM (inactive).
Consider `CCC(C)(C)C(=O)O[C@H]1C[C@@H](C)C=C2C=C[C@H](C)[C@H](CC[C@@H]3C[C@@H](O)CC(=O)O3)[C@H]21` [SIMVASTATIN], for which the GI50 in assay [1] was 8.45 µM (inactive); in assay [2], 4.03 µM (inactive); in assay [3], 0.658 µM (active); in assay [4], > 30 µM (inactive); in [5], 0.948 µM (active); in assay [16], 0.522 µM (active). Also, the GI50 in [6] was 1.51 µM (inactive); in [7], 13.2 µM (inactive); in assay [8], 6.85 µM (inactive); in assay [9] it was 12.3 µM (inactive); in assay [17], > 30 µM (inactive); in [10], 9.04 µM (inactive). The GI50 was 0.982 µM (active) in assay [11], 5.79 µM (inactive) in assay [12], 3.01 µM (inactive) in [14] and < 0.003 µM (active) in assay [15].
Turning to `C/C(=N/NC(=O)C[N+](C)(C)C)C(CN(C)C)C(=O)Nc1ccccc1` (stereo not drawn), the GI50 in assay [1], in assay [2], in [3], in [4], in assay [5] and in [16] was > 100 µM (inactive) each time. Besides, the GI50 in assay [6], in assay [7], in assay [8], in assay [9], in assay [17] and in [10] was > 100 µM (inactive) each time. The GI50 in assay [11], in assay [12], in assay [13] and in assay [14] was > 100 µM (inactive) in each case.
As for `COC(=O)C12CCC(CC1=O)C2(C)C` (stereo not drawn), the GI50 in [3] was 40.2 µM (inactive); in [4], > 100 µM (inactive); in assay [5] it was > 100 µM (inactive); in assay [6], > 100 µM (inactive); in assay [7], > 100 µM (inactive); in [8] it was > 100 µM (inactive). The GI50 in assay [9], in [17], in assay [10], in [11], in assay [12] and in assay [13] was > 100 µM (inactive) throughout. Further, the GI50 in assay [14] and in [15] was > 100 µM (inactive) each time.
Take `CC1=C(C(=O)O)N2C(=O)[C@@H](NC(=O)C(c3ccccc3)N3CSC(=S)N(C(C)C)C3)C2SC1` (stereo partly drawn): the GI50 was > 100 µM (inactive) in assay [1]; > 100 µM (inactive) in assay [2]; > 100 µM (inactive) in [3]; 59 µM (inactive) in assay [4]; > 100 µM (inactive) in assay [5]; > 100 µM (inactive) in assay [16]. Also, the GI50 in assay [6], in assay [8], in [9], in assay [17], in assay [10] and in assay [11] was > 100 µM (inactive) each time. In addition, the GI50 in assay [13], in assay [14] and in assay [15] was > 100 µM (inactive) throughout.
Take `COc1cc(-c2c(C)c(C)nc(OC)c2C#N)cc(OC)c1OC`: the GI50 in assay [1] was > 100 µM (inactive); in [3] it was 44.2 µM (inactive); in [4], > 100 µM (inactive); in assay [5] it was > 100 µM (inactive); in [16] it was > 100 µM (inactive); in [6], > 100 µM (inactive). The GI50 in [8] is > 100 µM (inactive); in assay [9] it was > 100 µM (inactive); in assay [17], 39.9 µM (inactive); in assay [10], > 100 µM (inactive); in assay [11] it was > 100 µM (inactive); in [12], > 100 µM (inactive). The GI50 is > 100 µM (inactive) in assay [13], 24.4 µM (inactive) in [14] and 21.3 µM (inactive) in assay [15].
Regarding `CCOC(=O)/C(C(=O)c1ccccc1)=C1\N[C@H](C(=O)OCC)CS1`, the GI50 in [1], in assay [2], in [3], in [4], in [5] and in assay [16] was > 100 µM (inactive) in each case. The GI50 is > 100 µM (inactive) in assay [6]; > 100 µM (inactive) in assay [7]; > 100 µM (inactive) in assay [8]; > 100 µM (inactive) in assay [9]; > 100 µM (inactive) in [17]; 10 µM (inactive) in [10]. Moreover, the GI50 in assay [11], in [12], in assay [13] and in assay [14] was > 100 µM (inactive) throughout.
As to `N#CC(C#N)c1ccc(C(=O)N2CCC[C@H]2CO)cc1`, the GI50 in assay [1], in assay [2], in assay [3], in assay [4], in assay [5] and in assay [16] was > 100 µM (inactive) throughout. In addition, the GI50 in assay [6], in [8], in assay [9], in [17], in assay [10] and in assay [11] was > 100 µM (inactive) in each case. In addition, the GI50 was > 100 µM (inactive) in assay [12], > 100 µM (inactive) in assay [13], > 100 µM (inactive) in assay [14] and 58.2 µM (inactive) in assay [15].
Turning to `COCCN1C2=CCCCC2=Nc2c1nc(N)[nH]c2=O`, the GI50 in assay [1], in [2], in assay [3], in assay [4], in assay [5] and in [6] was > 100 µM (inactive) in each case. Further, the GI50 in assay [7], in [8], in assay [9], in assay [17], in assay [10] and in assay [11] was > 100 µM (inactive) each time. The GI50 in assay [12], in [13], in [14] and in assay [15] was > 100 µM (inactive) in each case.
For the molecule `CC(=O)OC1CC2(c3ccccc3)C(=O)c3ccccc3N2O1` (stereo not drawn), the GI50 in [3] was > 100 µM (inactive); in assay [4] it was > 100 µM (inactive); in assay [5], 78.3 µM (inactive); in [6], > 100 µM (inactive); in [7] it was > 100 µM (inactive); in [8], > 100 µM (inactive). Further, the GI50 in [9], in [17], in [10], in assay [11], in assay [12] and in assay [13] was > 100 µM (inactive) each time. The GI50 in assay [14] was > 100 µM (inactive); in [15], 65.8 µM (inactive).
Consider `CCCC1N2CCCCC2[C@@H]2c3[nH]c4ccccc4c3CCN12` (stereo partly drawn), for which the GI50 in assay [2] is > 100 µM (inactive); in assay [3] it was 32.3 µM (inactive); in [4], > 100 µM (inactive); in assay [5], > 100 µM (inactive); in assay [16], > 100 µM (inactive); in [6], > 100 µM (inactive). Also, the GI50 in assay [8], in assay [9], in assay [17], in assay [10], in assay [11] and in assay [12] was > 100 µM (inactive) in each case. The GI50 in assay [13] was 25.8 µM (inactive); in [14], > 100 µM (inactive); in assay [15], > 100 µM (inactive).
For the molecule `c1ccc(SC2(Sc3ccccc3)CCCC2)cc1`, the GI50 in assay [1], in assay [2], in assay [3], in assay [4], in assay [5] and in assay [16] was > 100 µM (inactive) in each case. Further, the GI50 in [6], in [7], in assay [9], in [17], in assay [10] and in assay [11] was > 100 µM (inactive) throughout. Besides, the figures for the GI50 in [12], in [14] and in assay [15] were > 100 µM (inactive), > 100 µM (inactive) and 71.1 µM (inactive), respectively.
